The record followed here is EP0908457B1, “3-(1,2-benzisothiazol- and isoxazol-5-Y1)-2,4(1H,3H)-pyrimidinedione or thione and 3-(1,2-benzisothiazol- and isoxazol-5-y1)-4(3H)-pyrimidinone or thione herbicidal agents” (BASF AKTIENGESELLSCHAFT, priority 1997, dated 1999).

Data set [1] relates to Echinochloa oryzoides (Ard.) Fritsch. As to the kind of experiment: Preemergence weed control under flooded paddy conditions, ECHORC (Watergrass (Calif.)). On herbicidal effect rating, ECHORC: meaning of each grade not given here. It is filed as in vivo. The following applies: flooded paddy, rated three to four weeks after treatment; for ECHORC herbicidal effect rating: preemergence; for herbicidal effect rating, ECHORC: preemergence weeds.
A further data set relates to Cyperus iria. The experiment in a line: Preemergence weed control under flooded paddy conditions, CYPIR (Rice Flatsedge). On herbicidal effect rating, CYPIR: meaning of each grade not given here. It is filed as in vivo. The following applies: flooded paddy, rated three to four weeks after treatment; for CYPIR herbicidal effect rating: preemergence; for herbicidal effect rating, CYPIR: preemergence weeds.
Data set [2] concerns Monochoria vaginalis, Presl. As to the kind of experiment: Preemergence weed control under flooded paddy conditions, MOOVA (Monochoria). On herbicidal effect rating, MOOVA: meaning of each grade not given here. It is filed as in vivo. The conditions noted are these: flooded paddy, rated three to four weeks after treatment; for MOOVA herbicidal effect rating: preemergence; for herbicidal effect rating, MOOVA: preemergence weeds.
The next data set concerns Sagittaria pygmaea, L. As to the kind of experiment: Preemergence weed control under flooded paddy conditions, SAGPY (Arrowhead (Pygmaea)). On herbicidal effect rating, SAGPY: meaning of each grade not given here. It is filed as in vivo. The conditions noted are these: flooded paddy, rated three to four weeks after treatment; for SAGPY herbicidal effect rating: preemergence; for herbicidal effect rating, SAGPY: preemergence weeds.
For data set [3], the system named is Oryza sativa, (L.) Tebonnet. As to the kind of experiment: Rice tolerance to post-transplant applications under flooded paddy conditions (Example 187), ORYSAT (Rice, Tebonnet). The following applies: rated three to four weeks after treatment.

Take `CNC.Cn1c(C(F)(F)F)cc(=O)n(-c2ccc3snc(COCC(=O)NS(C)(=O)=O)c3c2)c1=O` [Example 295, Acetamide, 2-{{5-[3,6-dihydro-3-methyl-2,6-dioxo-4-(trifluoromethyl)-1(2H)-pyrimidinyl]-1,2-benzisothiazol-3-yl}methoxy}-N-(methylsulfonyl)-, dimethylamine salt]: the “ECHORC herbicidal effect rating” value in data set [1] (Rate 0.0620 kg/ha), in data set [1] (Rate 0.1250 kg/ha) and in data set [1] (Rate 0.2500 kg/ha) was 0.0 in each case. For the same compound, the results for the “CYPIR herbicidal effect rating” value with Cyperus iria (Rate 0.0620 kg/ha), in the data set with Cyperus iria (Rate 0.1250 kg/ha) and in the data set with Cyperus iria (Rate 0.2500 kg/ha) were 0.0, 9.0 and 9.0, respectively. Moreover, the “MOOVA herbicidal effect rating” value came out at 0.0 in data set [2] (Rate 0.0620 kg/ha), 9.0 in data set [2] (Rate 0.1250 kg/ha) and 9.0 in data set [2] (Rate 0.2500 kg/ha). Also, the “SAGPY herbicidal effect rating” value with Sagittaria pygmaea, L. (Rate 0.0620 kg/ha) is given as 0.0; with Sagittaria pygmaea, L. (Rate 0.1250 kg/ha) it was 0.0; in the data set with Sagittaria pygmaea, L. (Rate 0.2500 kg/ha) it was 6.0. In addition, the “ORYSAT herbicidal effect rating” value in data set [3] (Rate 0.0620 kg/ha), in data set [3] (Rate 0.1250 kg/ha) and in data set [3] (Rate 0.2500 kg/ha) was 0.0 in each case.

With `CNC.Cn1c(C(F)(F)F)cc(=O)n(-c2ccc3snc(COCC(=O)O)c3c2)c1=O` [Example 296, Acetic acid, {{5-[3,6-dihydro-3-methyl-2,6-dioxo-4-(trifluoromethyl)-1(2H)-pyrimidinyl]-1,2-benzisothiazol-3-yl}methoxy}-, dimethylamine salt], the “ECHORC herbicidal effect rating” value in data set [1] (Rate 0.0320 kg/ha) was 0.0; in data set [1] (Rate 0.0620 kg/ha), 0.0; in data set [1] (Rate 0.1250 kg/ha) it was 2.0; in data set [1] (Rate 0.2500 kg/ha), 4.0. For the same compound, the “CYPIR herbicidal effect rating” value in the data set with Cyperus iria (Rate 0.0320 kg/ha) worked out at 6.0; in the data set with Cyperus iria (Rate 0.0620 kg/ha), 7.0; in the data set with Cyperus iria (Rate 0.1250 kg/ha), 7.0; in the data set with Cyperus iria (Rate 0.2500 kg/ha), 7.0. The “MOOVA herbicidal effect rating” value in data set [2] (Rate 0.0320 kg/ha), in data set [2] (Rate 0.0620 kg/ha), in data set [2] (Rate 0.1250 kg/ha) and in data set [2] (Rate 0.2500 kg/ha) was 9.0 in each case. The “SAGPY herbicidal effect rating” value in the data set on Sagittaria pygmaea, L. (Rate 0.0320 kg/ha) was found to be 0.0; in the data set with Sagittaria pygmaea, L. (Rate 0.0620 kg/ha), 0.0; in the data set with Sagittaria pygmaea, L. (Rate 0.1250 kg/ha) it was 5.0; in the data set with Sagittaria pygmaea, L. (Rate 0.2500 kg/ha) it was 7.0. In addition, the “ORYSAT herbicidal effect rating” value in data set [3] (Rate 0.0320 kg/ha) is 0.0; in data set [3] (Rate 0.0620 kg/ha) it was 0.0; in data set [3] (Rate 0.1250 kg/ha), 0.0; in data set [3] (Rate 0.2500 kg/ha), 2.0.

On to `Cn1c(C(F)(F)F)cc(=O)n(-c2ccc3snc(CSCC(=O)NS(C)(=O)=O)c3c2)c1=O` [Example 297, Acetamide, 2-{{{5-[3,6-dihydro-3-methyl-2,6-dioxo-4-(trifluoromethyl)-1(2H)-pyrimidinyl]-1,2-benzisothiazol-3-yl}methyl}thio}-N-(methylsulfonyl)-], for which the “herbicidal effect rating, ECHORC” value in data set [1] (Rate 0.0320 kg/ha) is given as 0.0; in data set [1] (Rate 0.0620 kg/ha), 0.0; in data set [1] (Rate 0.1250 kg/ha), 3.0; in data set [1] (Rate 0.2500 kg/ha) it was 4.0. Moreover, the “herbicidal effect rating, CYPIR” value in the data set on Cyperus iria (Rate 0.0320 kg/ha) was 4.0; with Cyperus iria (Rate 0.0620 kg/ha), 5.0; in the data set on Cyperus iria (Rate 0.1250 kg/ha) it was 7.0; in the data set on Cyperus iria (Rate 0.2500 kg/ha), 9.0. Moreover, the “herbicidal effect rating, MOOVA” value in data set [2] (Rate 0.0320 kg/ha), in data set [2] (Rate 0.0620 kg/ha), in data set [2] (Rate 0.1250 kg/ha) and in data set [2] (Rate 0.2500 kg/ha) was 9.0 in each case. Besides, the “herbicidal effect rating, SAGPY” value amounted to 0.0 in the data set on Sagittaria pygmaea, L. (Rate 0.0320 kg/ha); 0.0 with Sagittaria pygmaea, L. (Rate 0.0620 kg/ha); 3.0 with Sagittaria pygmaea, L. (Rate 0.1250 kg/ha); 9.0 in the data set with Sagittaria pygmaea, L. (Rate 0.2500 kg/ha). Further, the “herbicidal effect rating ORYSAT” value in data set [3] (Rate 0.0320 kg/ha) is 0.0; in data set [3] (Rate 0.0620 kg/ha), 0.0; in data set [3] (Rate 0.1250 kg/ha) it was 0.0; in data set [3] (Rate 0.2500 kg/ha), 2.0.

For the compound `CNC.Cn1c(C(F)(F)F)cc(=O)n(-c2ccc3snc(CSCC(=O)NS(C)(=O)=O)c3c2)c1=O` [Example 298, Acetamide, 2-{{{5-[3,6-dihydro-3-methyl-2,6-dioxo-4-(trifluoromethyl)-1(2H)-pyrimidinyl]-1,2-benzisothiazol-3-yl}methyl}thio}-N-(methylsulfonyl)-, dimethylamine salt], the “herbicidal effect rating, ECHORC” value is listed as 0.0 in data set [1] (Rate 0.0320 kg/ha), 0.0 in data set [1] (Rate 0.0620 kg/ha), 0.0 in data set [1] (Rate 0.1250 kg/ha) and 3.0 in data set [1] (Rate 0.2500 kg/ha). The “herbicidal effect rating, CYPIR” value in the data set with Cyperus iria (Rate 0.0320 kg/ha) is on record as 3.0; in the data set with Cyperus iria (Rate 0.0620 kg/ha), 9.0; in the data set on Cyperus iria (Rate 0.1250 kg/ha) it was 9.0; in the data set with Cyperus iria (Rate 0.2500 kg/ha), 9.0. The “herbicidal effect rating, MOOVA” value in data set [2] (Rate 0.0320 kg/ha), in data set [2] (Rate 0.0620 kg/ha), in data set [2] (Rate 0.1250 kg/ha) and in data set [2] (Rate 0.2500 kg/ha) was 9.0 each time. Besides, the “herbicidal effect rating, SAGPY” value worked out at 0.0 with Sagittaria pygmaea, L. (Rate 0.0320 kg/ha); 0.0 in the data set on Sagittaria pygmaea, L. (Rate 0.0620 kg/ha); 3.0 in the data set on Sagittaria pygmaea, L. (Rate 0.1250 kg/ha); 9.0 in the data set on Sagittaria pygmaea, L. (Rate 0.2500 kg/ha). The “herbicidal effect rating ORYSAT” value in data set [3] (Rate 0.0320 kg/ha), in data set [3] (Rate 0.0620 kg/ha), in data set [3] (Rate 0.1250 kg/ha) and in data set [3] (Rate 0.2500 kg/ha) was 0.0 throughout.

Consider `CNC.Cn1c(C(F)(F)F)cc(=O)n(-c2ccc3snc(CSCC(=O)O)c3c2)c1=O` [Example 299, Acetic acid, {{{5-[3,6-dihydro-3-methyl-2,6-dioxo-4-(trifluoromethyl)-1(2H)-pyrimidinyl)-1,2-benzisothiazol-3-yl}methyl}thio}-, dimethylamine salt], for which the “herbicidal effect rating, ECHORC” value is recorded as 0.0 in data set [1] (Rate 0.0320 kg/ha), 0.0 in data set [1] (Rate 0.0620 kg/ha), 2.0 in data set [1] (Rate 0.1250 kg/ha) and 5.0 in data set [1] (Rate 0.2500 kg/ha). In addition, the “herbicidal effect rating, CYPIR” value in the data set on Cyperus iria (Rate 0.0320 kg/ha) came to 3.0; in the data set with Cyperus iria (Rate 0.0620 kg/ha), 7.0; in the data set on Cyperus iria (Rate 0.1250 kg/ha), 9.0; in the data set on Cyperus iria (Rate 0.2500 kg/ha), 9.0. The “herbicidal effect rating, MOOVA” value in data set [2] (Rate 0.0320 kg/ha) turned out to be 7.0; in data set [2] (Rate 0.0620 kg/ha), 9.0; in data set [2] (Rate 0.1250 kg/ha), 9.0; in data set [2] (Rate 0.2500 kg/ha), 9.0. Also, the “herbicidal effect rating, SAGPY” value in the data set with Sagittaria pygmaea, L. (Rate 0.0320 kg/ha) is on record as 0.0; in the data set with Sagittaria pygmaea, L. (Rate 0.0620 kg/ha), 0.0; in the data set with Sagittaria pygmaea, L. (Rate 0.1250 kg/ha) it was 3.0; with Sagittaria pygmaea, L. (Rate 0.2500 kg/ha), 7.0. The “herbicidal effect rating ORYSAT” value is recorded as 0.0 in data set [3] (Rate 0.0320 kg/ha), 0.0 in data set [3] (Rate 0.0620 kg/ha), 3.0 in data set [3] (Rate 0.1250 kg/ha) and 5.0 in data set [3] (Rate 0.2500 kg/ha).

Consider `Cn1c(C(F)(F)F)cc(=O)n(-c2ccc3snc(C(Cl)Br)c3c2)c1=O` (stereo not drawn) [Example 300, 2,4(1H,3H)-Pyrimidinedione, 3-[3-(bromochloromethyl)-1,2-benzisothiazol-5-yl]-1-methyl-6-(trifluoromethyl)-], for which the “herbicidal effect rating, ECHORC” value in data set [1] (Rate 0.0320 kg/ha) is 3.0; in data set [1] (Rate 0.0620 kg/ha), 6.0; in data set [1] (Rate 0.1250 kg/ha), 7.0; in data set [1] (Rate 0.2500 kg/ha), 9.0. The “herbicidal effect rating, CYPIR” value stood at 3.0 in the data set on Cyperus iria (Rate 0.0320 kg/ha), 6.0 in the data set on Cyperus iria (Rate 0.0620 kg/ha), 9.0 in the data set with Cyperus iria (Rate 0.1250 kg/ha) and 9.0 in the data set on Cyperus iria (Rate 0.2500 kg/ha). Besides, the “herbicidal effect rating, MOOVA” value in data set [2] (Rate 0.0320 kg/ha), in data set [2] (Rate 0.0620 kg/ha), in data set [2] (Rate 0.1250 kg/ha) and in data set [2] (Rate 0.2500 kg/ha) was 9.0 throughout. Also, the “herbicidal effect rating, SAGPY” value in the data set with Sagittaria pygmaea, L. (Rate 0.0320 kg/ha) was 2.0; in the data set on Sagittaria pygmaea, L. (Rate 0.0620 kg/ha) it was 5.0; with Sagittaria pygmaea, L. (Rate 0.1250 kg/ha), 6.0; in the data set with Sagittaria pygmaea, L. (Rate 0.2500 kg/ha), 7.0. The “herbicidal effect rating ORYSAT” value in data set [3] (Rate 0.0320 kg/ha) is reported as 2.0; in data set [3] (Rate 0.0620 kg/ha) it was 4.0; in data set [3] (Rate 0.1250 kg/ha) it was 4.0; in data set [3] (Rate 0.2500 kg/ha) it was 5.0.

As for `Cn1c(C(F)(F)F)cc(=O)n(-c2ccc3snc(C(=O)Oc4ccc(F)cc4)c3c2)c1=O` [Example 320, 1,2-Benzisothiazole-3-carboxylic acid, 5-[3,6-dihydro-3-methyl-2,6-dioxo-4-(trifluoromethyl)-1(2H)-pyrimidinyl]-, p-fluorophenyl ester], the “herbicidal effect rating, ECHORC” value is on record as 0.0 in data set [1] (Rate 0.0320 kg/ha), 0.0 in data set [1] (Rate 0.0620 kg/ha), 0.0 in data set [1] (Rate 0.1250 kg/ha) and 2.5 in data set [1] (Rate 0.2500 kg/ha). The “herbicidal effect rating, CYPIR” value was determined as 0.0 with Cyperus iria (Rate 0.0320 kg/ha), 2.0 with Cyperus iria (Rate 0.0620 kg/ha), 5.5 with Cyperus iria (Rate 0.1250 kg/ha) and 8.0 in the data set with Cyperus iria (Rate 0.2500 kg/ha). For the same compound, the “herbicidal effect rating, MOOVA” value in data set [2] (Rate 0.0320 kg/ha) came out at 0.0; in data set [2] (Rate 0.0620 kg/ha), 0.0; in data set [2] (Rate 0.1250 kg/ha), 3.0; in data set [2] (Rate 0.2500 kg/ha), 9.0. Also, the “herbicidal effect rating, SAGPY” value was 1.0 in the data set on Sagittaria pygmaea, L. (Rate 0.0320 kg/ha); 2.5 in the data set with Sagittaria pygmaea, L. (Rate 0.0620 kg/ha); 2.5 with Sagittaria pygmaea, L. (Rate 0.1250 kg/ha); 5.0 with Sagittaria pygmaea, L. (Rate 0.2500 kg/ha). The “herbicidal effect rating ORYSAT” value in data set [3] (Rate 0.0320 kg/ha) is recorded as 1.5; in data set [3] (Rate 0.0620 kg/ha), 2.0; in data set [3] (Rate 0.1250 kg/ha), 2.0; in data set [3] (Rate 0.2500 kg/ha), 2.5.
